Patent US8609849B1, “Hydroxylated sulfamides exhibiting neuroprotective action and their method of use” (Fox Chase Chemical Diversity Center, Inc., priority 2010, dated 2013)

Assays:
Hippocampal Cultures [1] = assay: Neuroprotection from glutamate (excitotoxicity), CFDA assay; assay type: cell-based; conditions: Rattus norvegicus, read-out: NP from Glutamate CFDA EC50
Source text: (§1) Cell cultures: All compounds are screened with dissociated hippocampal cultures derived from embryonic day 18 rats as the primary test system. With this preparation, primary neurons are used to test for toxicity as well as neuroprotection in a highly relevant experimental system to epilepsy. In brief, hippocampal tissue are obtained commercially through Brain Bits (Springfield, Ill.) and cultures prepared as previously described by Brewer (Brewer, G. J. Serum-free B27/neurobasal medium supports differentiated growth of neurons from the striatum, substantia nigra, septum, cerebral cortex, cerebellum and dentate gyms, J. Neurosci. Res. 1995, 42, 674-683.). The hippocampal neurons are platted at low density (10,000 cell/well) in a 96-well format and maintained in serum-free medium consisting of Neurobasal Medium supplemented with B27 and GlutaMAX (Gibco). Pre-coated poly-L-lysine coated plates are used because of the preferential adherence and survival of hippocampal neurons on this matrix support.
(§2) Potent neuroprotection is the distinguishing characteristic that separates this program's anticonvulsants from all other commercial drugs for epilepsy. The experimental details and the rationale for the implemented assays are essential in differentiating these compounds from that of others. The central objective of all neuroprotective assays was their relevancy to excitotoxicity and oxidative stress related to epilepsy. Both the amount of glutamate and hydrogen peroxide used in the assays, as well as the time of treatment and duration of the experiment, were designed to be relevant to epilepsy. Further, all time parameters employed in these studies were empirically determined to be within the limits of reversible toxic events, yet using amounts of glutamate and hydrogen peroxide that were relevant to the disease. In regard to glutamate toxicity, a critical feature was the duration of treatment of the hippocampal neurons. The rational for using a short 5 min treatment with glutamate was based on the observation of Randall and Thayer (Randall, R. D.; Thayer, S. A. Glutamate-induced calcium transient triggers calcium overload and neurotoxicity in rat hippocampal neurons, J. Neurosci. 1992, 12, 1882-1895). […] The rationale is that this intense burst of glutamate and resulting calcium overload is relevant to seizures and therefore was important data to capture in the screening assay. The amount of glutamate (30 μM) employed in our screening was based on the basal levels of glutamate observed in microdialysis measurements of hippocampus from epileptogenic patients (Cavus et al. Decreased hippocampal volume on MRI is associated with increased extracellular glutamate in epilepsy patients, Epilepsia, 2008, 49, 1358-1366.). In regard to hydrogen peroxide, the amount employed (10 μM) was detected in the hippocampus of rats after kainate-induced status epilepticus (Jarrett et. al., Mitochondrial DNA damage and impaired base excision repair during epileptogenesis, Neurobiol. Dis. 2008, 30, 130-138). To produce neural damage and death with these amounts of glutamate and hydrogen peroxide, the cultures were changed to a medium with significant depletion of antioxidant components in the defined medium supplement B-27 just prior to treatment with the compounds. This was performed to obtain a significant and reproducible toxic signal in the hippocampal neurons and because loss of antioxidant control may be a component of epileptogenesis (Waldbaum and Patel, Mitochondria, oxidative stress and temporal lobe epilepsy, Epilepsy Res. 2010 88, 23-45.; Wu et al., Mitochondrial DNA mutation-elicited oxidative stress, oxidative damage, and altered gene expression in cultured cells of patients with MERRF syndrome, Mol. Neurobiol. 2010, 41, 256-266.). Neuroprotection studies with hydrogen peroxide were conducted with cultures that were between day 12 and day 18. Studies of neuroprotection glutamate were conducted between day 19 and day 22. […]

Hippocampal Cultures [2] = assay: Neuroprotection from hydrogen peroxide (oxidative stress), propidium iodide assay; assay type: cell-based; conditions: Rattus norvegicus, read-out: NP from HP PI EC50
Source text: as §1, §2

Hippocampal Cultures [3] = assay: Neuroprotection from hydrogen peroxide (oxidative stress), CFDA assay; assay type: cell-based; conditions: Rattus norvegicus, read-out: NP from HP CFDA EC50
Source text: as §1, §2

Hippocampal Cultures [4] = assay: Neuroprotection from glutamate (excitotoxicity), propidium iodide assay; assay type: cell-based; conditions: Rattus norvegicus, read-out: NP from Glutamate PI EC50
Source text: as §1, §2

mice = assay: Maximal Electroshock Test (anti-seizure test); assay type: in vivo; conditions: at 100 mg/kg
Source text: Seizure-related assays, Maximal electroshock test: The most definitive assay for antiseizure activity is the maximal electroshock (MES) test (Swinyard, E. A. Laboratory evaluation of antiepileptic drugs: review of laboratory methods, Epilepsia, 1969, 10, 107-119.). […] With both rodent assays, the duration of action is of high importance as well as the potency of the response.

[5] = 30 μM glutamate, hippocampal cultures, CFDA (neuronal viability)
[6] = 10 μM hydrogen peroxide, hippocampal cultures, propidium iodide (cell death)
[7] = 10 μM hydrogen peroxide, hippocampal cultures, CFDA (neuronal viability)
[8] = 30 μM glutamate, hippocampal cultures, propidium iodide (cell death)

SMILES	EC50 (Hippocampal Cultures [1]; [5])	EC50 (Hippocampal Cultures [2]; [6])	EC50 (Hippocampal Cultures [3]; [7])	EC50 (Hippocampal Cultures [4]; [8])	MES Duration (mice)	EC50 (Hippocampal Cultures [1])	EC50 (Hippocampal Cultures [2])	EC50 (Hippocampal Cultures [3])	EC50 (Hippocampal Cultures [4])
NS(=O)(=O)NCCC(O)c1ccccc1 (stereo not shown) [Example 9, N-(3-phenyl-3-hydroxy-propyl)-sulfamide]	300 µM	> 300 µM	> 300 µM	> 300 µM					
Cc1ccccc1C(O)CCNS(N)(=O)=O (stereo not shown) [Example 11, 3-(2-Methyl-phenyl)-3-hydroxypropyl-1-sulfamide]	> 300 µM			> 300 µM					
NS(=O)(=O)N1CCC(O)(c2ccccc2F)CC1 [Example 19, 4-(2-Fluorophenyl)-4-hydroxypiperidine-1-sulfonamide]	1 µM	1 µM	1 µM	0.001 µM	6 hrs at 100 mg/kg				
NS(=O)(=O)NCC[C@@H](O)c1ccccc1Cl [Example 17, (R)-3-(2-Chloro-phenyl)-3-hydroxypropyl-1-sulfamide]		> 300 µM	> 300 µM						
NS(=O)(=O)NCCC(O)c1cc(F)ccc1F (stereo not shown) [Example 7, 3-(2,5-Difluoro-phenyl)-3-hydroxypropyl-1-sulfamide]						30 µM	0.001 µM	0.01 µM	3 µM
NS(=O)(=O)NCCC(O)c1ccccc1Br (stereo not shown) [Example 13, 3-(2-bromo-phenyl)-3-hydroxypropyl-1-sulfamide]	10 µM	10 µM	300 µM	100 µM					
COc1ccccc1C(O)CCNS(N)(=O)=O (stereo not shown) [Example 14, 3-(2-methoxy-phenyl)-3-hydroxypropyl-1-sulfamide]						0.01 µM	0.01 µM	10 µM	0.1 µM
NS(=O)(=O)NCC[C@@H](O)c1ccccc1F [Example 16, (R)-3-(2-Fluoro-phenyl)-3-hydroxypropyl-1-sulfamide]							> 300 µM	> 300 µM	
NS(=O)(=O)NCCC(O)c1c(F)cccc1F (stereo not shown) [Example 22, 3-(2,6-Difluoro-phenyl)-3-hydroxypropyl-1-sulfamide]						100 µM	0.01 µM	1 µM	300 µM
NS(=O)(=O)NCCC(O)c1ccccc1-c1ccccc1 (stereo not shown) [Example 23, 3-(2-Phenyl-phenyl)-3-hydroxypropyl-1-sulfamide]	10 µM			300 µM					
CC(O)(CCNS(N)(=O)=O)c1ccccc1F (stereo not shown) [Example 10, N-[3-(2-Fluoro-phenyl)-3-hydroxy-butyl]-sulfamide]	10 µM	300 µM	0.1 µM	10 µM					
